# Experiments:
# [1] = molecular target: Tyrosine-protein kinase ABL1 (Homo sapiens, UniProt P00519); assay: Selectivity interaction (HotSpot assay platform (Reaction Biology)) EUB0000632a ABL1; details: at 1 µM
# [2] = molecular target: Protein-tyrosine kinase 6 (Homo sapiens) (UniProt Q13882); assay: Selectivity interaction (HotSpot assay platform (Reaction Biology)) EUB0000632a PTK6; details: at 1 µM
# [3] = molecular target: Tyrosine-protein kinase Fyn (Homo sapiens, UniProt P06241); assay: Selectivity interaction (HotSpot assay platform (Reaction Biology)) EUB0000632a FYN; details: at 1 µM
# Tyrosine-protein kinase Fyn, sequence (P06241 2-537 limits assumed): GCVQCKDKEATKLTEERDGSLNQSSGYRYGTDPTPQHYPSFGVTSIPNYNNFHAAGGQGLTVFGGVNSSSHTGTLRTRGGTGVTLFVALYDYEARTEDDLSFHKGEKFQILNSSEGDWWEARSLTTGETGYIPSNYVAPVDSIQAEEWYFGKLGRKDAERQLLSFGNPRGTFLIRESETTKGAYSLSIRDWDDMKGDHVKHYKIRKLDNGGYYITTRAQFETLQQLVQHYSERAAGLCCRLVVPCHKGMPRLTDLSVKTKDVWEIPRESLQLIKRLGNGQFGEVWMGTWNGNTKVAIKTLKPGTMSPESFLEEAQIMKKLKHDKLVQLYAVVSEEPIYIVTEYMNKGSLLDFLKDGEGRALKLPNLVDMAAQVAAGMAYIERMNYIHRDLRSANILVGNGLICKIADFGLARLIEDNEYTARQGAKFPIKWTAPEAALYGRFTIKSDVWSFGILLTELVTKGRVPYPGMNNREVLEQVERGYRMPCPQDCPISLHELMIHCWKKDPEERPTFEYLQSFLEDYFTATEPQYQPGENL
# [4] = molecular target: Vascular endothelial growth factor receptor 2 (Homo sapiens, UniProt P35968); assay: Selectivity interaction (HotSpot assay platform (Reaction Biology)) EUB0000632a KDR; details: at 1 µM
# [5] = molecular target: Dual specificity tyrosine-phosphorylation-regulated kinase 1B (Homo sapiens, UniProt Q9Y463); assay: Selectivity interaction (KinomeScan (DiscoverX)) EUB0000334a DYRK1B; details: at 1 µM
# Dual specificity tyrosine-phosphorylation-regulated kinase 1B, sequence (Q9Y463 whole entry, looked up): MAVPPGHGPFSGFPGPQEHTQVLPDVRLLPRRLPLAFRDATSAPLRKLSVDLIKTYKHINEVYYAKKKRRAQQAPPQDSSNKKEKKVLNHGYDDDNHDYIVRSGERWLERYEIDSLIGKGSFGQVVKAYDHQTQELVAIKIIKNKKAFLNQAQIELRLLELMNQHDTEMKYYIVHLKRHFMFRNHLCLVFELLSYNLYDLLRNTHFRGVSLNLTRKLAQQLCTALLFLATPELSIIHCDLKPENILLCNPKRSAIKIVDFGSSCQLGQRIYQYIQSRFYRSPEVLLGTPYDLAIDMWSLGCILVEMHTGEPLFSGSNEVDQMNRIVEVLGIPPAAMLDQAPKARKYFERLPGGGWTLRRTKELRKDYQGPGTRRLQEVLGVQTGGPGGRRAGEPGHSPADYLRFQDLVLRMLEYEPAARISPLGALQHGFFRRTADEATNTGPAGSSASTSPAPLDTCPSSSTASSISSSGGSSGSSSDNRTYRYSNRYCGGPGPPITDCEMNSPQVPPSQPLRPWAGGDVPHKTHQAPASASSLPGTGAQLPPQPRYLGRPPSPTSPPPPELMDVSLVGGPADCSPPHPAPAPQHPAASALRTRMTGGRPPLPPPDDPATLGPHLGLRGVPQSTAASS
# [6] = molecular target: T1, Gamma-aminobutyric acid receptor subunit alpha-1 (Homo sapiens) (UniProt P14867); assay: (§1) Selectivity interaction (GPCR panel (PDSP screen)) EUB0000334a GABRA1; details: at 10 µM
# T1 sequence (whole entry): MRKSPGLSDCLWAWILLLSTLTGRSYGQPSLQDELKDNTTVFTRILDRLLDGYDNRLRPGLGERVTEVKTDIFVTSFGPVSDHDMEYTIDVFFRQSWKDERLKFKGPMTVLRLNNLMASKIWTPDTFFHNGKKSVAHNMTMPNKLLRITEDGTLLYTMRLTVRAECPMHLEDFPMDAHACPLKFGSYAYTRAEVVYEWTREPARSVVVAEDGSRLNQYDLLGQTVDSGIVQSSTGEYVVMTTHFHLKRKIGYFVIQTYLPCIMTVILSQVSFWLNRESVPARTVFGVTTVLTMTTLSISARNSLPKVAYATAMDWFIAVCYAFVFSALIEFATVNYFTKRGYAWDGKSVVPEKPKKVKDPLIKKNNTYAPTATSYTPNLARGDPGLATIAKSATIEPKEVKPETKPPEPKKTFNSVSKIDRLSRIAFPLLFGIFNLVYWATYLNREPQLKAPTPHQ
# [7] = molecular target: T1, Gamma-aminobutyric acid receptor subunit alpha-1 (Homo sapiens); assay: as §1; details: at 10 µM; remark: listed apart in the source
# [8] = molecular target: Rho-associated protein kinase 1 (Homo sapiens) (UniProt Q13464); assay: Selectivity interaction (KinomeScan (DiscoverX)) EUB0000334a ROCK1; details: at 1 µM
# [9] = molecular target: Serine/threonine-protein kinase pim-1 (Homo sapiens, UniProt P11309); assay: Selectivity interaction (Kinase Profiler (Millipore)) EUB0000603a PIM1; details: at 10 µM
# Serine/threonine-protein kinase pim-1, sequence (P11309 whole entry, looked up): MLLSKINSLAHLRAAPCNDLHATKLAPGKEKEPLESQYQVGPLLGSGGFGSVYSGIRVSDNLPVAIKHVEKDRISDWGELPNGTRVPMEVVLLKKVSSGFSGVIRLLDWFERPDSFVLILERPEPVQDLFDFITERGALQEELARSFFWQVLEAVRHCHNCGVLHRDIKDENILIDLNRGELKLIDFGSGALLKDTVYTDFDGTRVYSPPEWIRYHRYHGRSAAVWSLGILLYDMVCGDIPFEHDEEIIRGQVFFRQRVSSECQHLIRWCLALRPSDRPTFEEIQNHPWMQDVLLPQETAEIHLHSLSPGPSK
# [10] = system: Platelet-derived growth factor receptor alpha (Homo sapiens), P16234 [V561D]; assay: Selectivity interaction (Kinase Profiler (Millipore)) EUB0000603a PDGFRA; details: at 10 µM
# Platelet-derived growth factor receptor alpha (Homo sapiens), P16234 [V561D], sequence (P16234 whole entry V561D): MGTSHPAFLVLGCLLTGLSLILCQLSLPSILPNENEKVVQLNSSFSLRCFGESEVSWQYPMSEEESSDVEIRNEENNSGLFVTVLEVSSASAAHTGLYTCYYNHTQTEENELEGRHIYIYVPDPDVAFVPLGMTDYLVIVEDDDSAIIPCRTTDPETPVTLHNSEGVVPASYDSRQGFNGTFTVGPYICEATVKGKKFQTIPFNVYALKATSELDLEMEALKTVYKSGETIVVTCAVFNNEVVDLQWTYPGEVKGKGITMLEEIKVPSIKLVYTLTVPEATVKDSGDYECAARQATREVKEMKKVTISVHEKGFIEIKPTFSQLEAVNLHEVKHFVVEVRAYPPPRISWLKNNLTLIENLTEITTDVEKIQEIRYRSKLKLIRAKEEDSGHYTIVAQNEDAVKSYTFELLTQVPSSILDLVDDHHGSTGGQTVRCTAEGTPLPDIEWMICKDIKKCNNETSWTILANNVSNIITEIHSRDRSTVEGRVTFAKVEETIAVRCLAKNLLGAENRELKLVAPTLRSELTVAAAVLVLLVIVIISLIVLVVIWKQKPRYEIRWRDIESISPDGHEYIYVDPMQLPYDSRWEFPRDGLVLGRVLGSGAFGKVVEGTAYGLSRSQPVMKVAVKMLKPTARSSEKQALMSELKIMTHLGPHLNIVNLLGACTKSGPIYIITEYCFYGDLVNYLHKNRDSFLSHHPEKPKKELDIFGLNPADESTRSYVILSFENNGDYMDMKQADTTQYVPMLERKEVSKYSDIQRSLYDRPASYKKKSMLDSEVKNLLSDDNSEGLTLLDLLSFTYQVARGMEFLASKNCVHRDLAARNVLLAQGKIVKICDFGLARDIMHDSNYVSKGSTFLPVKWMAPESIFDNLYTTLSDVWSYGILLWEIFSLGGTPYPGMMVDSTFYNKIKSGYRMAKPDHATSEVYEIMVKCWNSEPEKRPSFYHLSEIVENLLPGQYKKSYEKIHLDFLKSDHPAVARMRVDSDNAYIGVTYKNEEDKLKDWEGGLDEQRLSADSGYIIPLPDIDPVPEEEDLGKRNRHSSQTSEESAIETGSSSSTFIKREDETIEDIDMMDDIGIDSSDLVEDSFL
# [11] = molecular target: Ribosomal protein S6 kinase alpha-3 (Homo sapiens) (UniProt P51812); details: at 10 µM
# [12] = molecular target: Ribosomal protein S6 kinase alpha-6 (Homo sapiens) (UniProt Q9UK32); details: at 10 µM
# Ribosomal protein S6 kinase alpha-6 (Homo sapiens), sequence (Q9UK32 whole entry): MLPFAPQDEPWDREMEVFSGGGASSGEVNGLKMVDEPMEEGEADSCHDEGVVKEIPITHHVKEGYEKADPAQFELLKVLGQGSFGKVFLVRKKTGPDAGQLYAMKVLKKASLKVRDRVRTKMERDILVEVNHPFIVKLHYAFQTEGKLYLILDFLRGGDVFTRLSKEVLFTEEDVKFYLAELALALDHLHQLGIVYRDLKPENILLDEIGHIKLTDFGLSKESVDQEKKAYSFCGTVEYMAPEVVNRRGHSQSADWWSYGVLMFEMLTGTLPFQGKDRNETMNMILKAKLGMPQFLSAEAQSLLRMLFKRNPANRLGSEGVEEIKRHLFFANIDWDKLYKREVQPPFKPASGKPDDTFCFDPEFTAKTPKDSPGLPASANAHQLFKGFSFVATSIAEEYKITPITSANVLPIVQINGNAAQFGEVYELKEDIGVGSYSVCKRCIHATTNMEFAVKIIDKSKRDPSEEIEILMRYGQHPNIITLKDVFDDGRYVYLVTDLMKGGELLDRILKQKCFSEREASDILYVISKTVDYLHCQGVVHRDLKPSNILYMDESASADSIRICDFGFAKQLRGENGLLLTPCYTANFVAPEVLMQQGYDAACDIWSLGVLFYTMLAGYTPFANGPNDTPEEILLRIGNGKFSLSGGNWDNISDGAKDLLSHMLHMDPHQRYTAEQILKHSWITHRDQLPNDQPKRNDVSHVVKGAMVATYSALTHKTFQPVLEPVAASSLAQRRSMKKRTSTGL
# [13] = molecular target: Serine/threonine-protein kinase N2 (Homo sapiens) (UniProt Q16513); details: at 10 µM
# [14] = molecular target: 5-hydroxytryptamine receptor 1A (Homo sapiens) (UniProt P08908); assay: Selectivity interaction (CEREP ExpressProfile selectivity/specificity profile (human recombinant receptors)) EUB0000213bCl HTR1A; details: at 10 µM
# 5-hydroxytryptamine receptor 1A (Homo sapiens), sequence (P08908 whole entry): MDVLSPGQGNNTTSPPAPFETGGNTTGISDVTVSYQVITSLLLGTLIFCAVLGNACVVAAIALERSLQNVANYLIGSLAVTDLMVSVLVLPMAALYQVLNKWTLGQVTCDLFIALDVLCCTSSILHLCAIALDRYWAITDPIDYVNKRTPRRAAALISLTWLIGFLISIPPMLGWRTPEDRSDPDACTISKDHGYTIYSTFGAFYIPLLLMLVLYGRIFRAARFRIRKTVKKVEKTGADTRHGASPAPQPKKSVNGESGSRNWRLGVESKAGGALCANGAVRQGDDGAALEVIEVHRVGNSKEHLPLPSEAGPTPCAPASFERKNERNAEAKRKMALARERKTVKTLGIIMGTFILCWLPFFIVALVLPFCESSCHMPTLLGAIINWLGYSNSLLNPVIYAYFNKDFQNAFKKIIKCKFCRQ
# [15] = molecular target: Sodium-dependent dopamine transporter (Homo sapiens, UniProt Q01959); assay: Selectivity interaction (CEREP ExpressProfile selectivity/specificity profile (human recombinant receptors)) EUB0000213bCl SLC6A3; details: at 10 µM
# [16] = molecular target: Sodium-dependent serotonin transporter (Homo sapiens) (UniProt P31645); assay: Selectivity interaction (CEREP ExpressProfile selectivity/specificity profile (human recombinant receptors)) EUB0000213bCl SLC6A4; details: at 10 µM
# Sodium-dependent serotonin transporter (Homo sapiens), sequence (P31645 whole entry, looked up): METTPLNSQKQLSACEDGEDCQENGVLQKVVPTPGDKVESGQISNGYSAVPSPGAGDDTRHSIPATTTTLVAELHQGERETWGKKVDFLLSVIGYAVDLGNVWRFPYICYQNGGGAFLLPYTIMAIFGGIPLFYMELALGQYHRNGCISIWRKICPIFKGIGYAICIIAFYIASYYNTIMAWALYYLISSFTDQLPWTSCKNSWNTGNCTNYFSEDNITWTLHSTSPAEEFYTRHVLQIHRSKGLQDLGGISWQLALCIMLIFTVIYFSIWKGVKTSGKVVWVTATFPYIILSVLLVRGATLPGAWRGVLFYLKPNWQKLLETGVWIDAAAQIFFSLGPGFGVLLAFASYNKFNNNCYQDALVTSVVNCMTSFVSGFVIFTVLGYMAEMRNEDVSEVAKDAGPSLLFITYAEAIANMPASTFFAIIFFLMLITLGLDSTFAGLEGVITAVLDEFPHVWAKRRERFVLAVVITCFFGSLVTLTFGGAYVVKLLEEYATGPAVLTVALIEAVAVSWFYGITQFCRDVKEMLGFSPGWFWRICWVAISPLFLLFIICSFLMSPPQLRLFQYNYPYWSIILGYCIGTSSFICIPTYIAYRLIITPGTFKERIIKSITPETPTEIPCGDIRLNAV
# [17] = molecular target: Histone-lysine N-methyltransferase NSD3 (Homo sapiens) (UniProt Q9BZ95); assay: Selectivity interaction (Methyltransferase panel) EUB0000198b NSD3; details: at 10 µM
# [18] = molecular target: RAF proto-oncogene serine/threonine-protein kinase (Homo sapiens) (UniProt P04049); details: at 1 µM
# [19] = molecular target: Myosin light chain kinase, smooth muscle (Homo sapiens) (UniProt Q15746); assay: Selectivity interaction (KinomScan Ambit) EUB0000622a MYLK; details: at 10 µM
# [20] = molecular target: ALK tyrosine kinase receptor (Homo sapiens, UniProt Q9UM73); assay: Selectivity interaction (KinomScan Ambit) EUB0000622a ALK; details: at 10 µM
# [21] = system: T2, Receptor-type tyrosine-protein kinase FLT3 (Homo sapiens), P36888 [D835Y]; assay: Selectivity interaction (KinomScan Ambit) EUB0000622a FLT3; details: at 10 µM
# T2 sequence (whole entry): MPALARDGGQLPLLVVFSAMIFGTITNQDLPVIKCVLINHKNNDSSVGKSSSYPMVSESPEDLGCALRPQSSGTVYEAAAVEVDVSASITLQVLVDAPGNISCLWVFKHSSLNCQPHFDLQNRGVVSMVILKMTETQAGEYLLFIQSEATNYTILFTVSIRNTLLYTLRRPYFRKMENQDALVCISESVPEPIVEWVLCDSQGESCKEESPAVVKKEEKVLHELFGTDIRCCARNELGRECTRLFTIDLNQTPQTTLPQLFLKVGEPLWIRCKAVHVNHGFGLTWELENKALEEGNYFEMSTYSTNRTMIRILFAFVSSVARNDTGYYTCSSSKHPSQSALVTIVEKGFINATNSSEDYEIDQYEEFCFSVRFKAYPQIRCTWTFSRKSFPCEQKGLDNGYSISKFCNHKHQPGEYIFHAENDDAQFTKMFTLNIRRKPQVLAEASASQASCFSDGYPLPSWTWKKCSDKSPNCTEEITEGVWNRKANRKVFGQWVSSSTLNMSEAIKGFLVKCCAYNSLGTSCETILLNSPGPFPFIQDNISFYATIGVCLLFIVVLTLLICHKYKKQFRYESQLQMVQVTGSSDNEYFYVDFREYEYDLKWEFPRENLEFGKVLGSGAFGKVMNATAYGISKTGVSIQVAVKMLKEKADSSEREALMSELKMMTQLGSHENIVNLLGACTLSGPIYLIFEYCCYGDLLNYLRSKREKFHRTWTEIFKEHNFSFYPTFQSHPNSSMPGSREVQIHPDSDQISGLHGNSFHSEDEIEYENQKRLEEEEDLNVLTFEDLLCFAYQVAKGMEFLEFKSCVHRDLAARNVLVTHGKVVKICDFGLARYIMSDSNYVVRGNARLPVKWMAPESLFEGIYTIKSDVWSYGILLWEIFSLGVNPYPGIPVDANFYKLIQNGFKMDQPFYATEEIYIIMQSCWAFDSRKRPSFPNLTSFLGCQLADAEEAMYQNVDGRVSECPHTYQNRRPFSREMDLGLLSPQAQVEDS
# [22] = molecular target: T3, Muscarinic acetylcholine receptor M2 (Homo sapiens) (UniProt P08172); assay: Selectivity interaction (Eurofins-Panlabs panel) EUB0000295b CHRM2; details: at 10 µM
# T3 sequence (whole entry): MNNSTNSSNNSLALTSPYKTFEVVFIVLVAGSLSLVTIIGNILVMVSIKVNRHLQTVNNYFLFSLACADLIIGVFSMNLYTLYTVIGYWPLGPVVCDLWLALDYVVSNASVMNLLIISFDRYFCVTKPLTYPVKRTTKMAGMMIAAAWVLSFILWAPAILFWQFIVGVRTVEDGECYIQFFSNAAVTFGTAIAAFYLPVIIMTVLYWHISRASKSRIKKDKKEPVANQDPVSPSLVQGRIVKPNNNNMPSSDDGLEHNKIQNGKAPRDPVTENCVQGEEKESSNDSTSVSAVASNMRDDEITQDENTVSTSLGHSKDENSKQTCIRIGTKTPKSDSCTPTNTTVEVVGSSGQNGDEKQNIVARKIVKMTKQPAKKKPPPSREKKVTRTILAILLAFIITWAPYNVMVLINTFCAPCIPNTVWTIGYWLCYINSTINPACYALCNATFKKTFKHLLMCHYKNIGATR
# [23] = molecular target: SRSF protein kinase 2 (Homo sapiens) (UniProt P78362); assay: Selectivity interaction (KinomeScan (DiscoverX)) EUB0000295b SRPK2; details: at 1 µM
# [24] = molecular target: T4, Phosphatidylinositol 4,5-bisphosphate 3-kinase catalytic subunit delta isoform (Homo sapiens) (UniProt O00329); assay: Selectivity interaction (KinomeScan (DiscoverX)) EUB0000295b PIK3CD; details: at 1 µM
# T4 sequence (whole entry): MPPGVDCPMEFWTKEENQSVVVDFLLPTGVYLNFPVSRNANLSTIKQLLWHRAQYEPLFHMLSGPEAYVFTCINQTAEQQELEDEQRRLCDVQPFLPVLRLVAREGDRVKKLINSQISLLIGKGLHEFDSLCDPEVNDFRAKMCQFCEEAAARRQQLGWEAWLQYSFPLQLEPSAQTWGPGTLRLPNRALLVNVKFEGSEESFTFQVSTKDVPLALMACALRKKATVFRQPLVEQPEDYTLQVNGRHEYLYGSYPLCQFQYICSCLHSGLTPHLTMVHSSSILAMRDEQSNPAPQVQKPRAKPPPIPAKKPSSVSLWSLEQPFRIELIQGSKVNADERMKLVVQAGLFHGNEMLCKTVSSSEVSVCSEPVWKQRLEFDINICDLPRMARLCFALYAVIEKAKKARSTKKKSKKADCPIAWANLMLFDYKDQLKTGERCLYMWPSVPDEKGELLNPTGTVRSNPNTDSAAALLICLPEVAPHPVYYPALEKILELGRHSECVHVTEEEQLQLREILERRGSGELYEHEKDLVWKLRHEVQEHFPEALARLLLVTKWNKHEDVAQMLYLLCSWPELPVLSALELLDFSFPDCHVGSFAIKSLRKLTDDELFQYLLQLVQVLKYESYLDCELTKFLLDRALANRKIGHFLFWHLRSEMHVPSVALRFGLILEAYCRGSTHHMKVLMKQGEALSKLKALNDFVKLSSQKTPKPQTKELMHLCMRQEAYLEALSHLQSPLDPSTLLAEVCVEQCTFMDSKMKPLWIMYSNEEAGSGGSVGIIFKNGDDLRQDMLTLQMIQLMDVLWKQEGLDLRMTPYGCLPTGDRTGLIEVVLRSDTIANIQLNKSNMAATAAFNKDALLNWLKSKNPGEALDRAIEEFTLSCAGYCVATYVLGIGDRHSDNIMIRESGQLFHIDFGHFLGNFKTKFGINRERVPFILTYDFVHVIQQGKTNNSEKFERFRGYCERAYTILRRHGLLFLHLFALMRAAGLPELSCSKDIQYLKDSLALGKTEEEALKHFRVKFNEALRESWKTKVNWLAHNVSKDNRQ
# [25] = molecular target: T5, Tyrosine-protein kinase JAK3 (Homo sapiens) (UniProt P52333); details: at 500 nM
# T5 sequence (whole entry): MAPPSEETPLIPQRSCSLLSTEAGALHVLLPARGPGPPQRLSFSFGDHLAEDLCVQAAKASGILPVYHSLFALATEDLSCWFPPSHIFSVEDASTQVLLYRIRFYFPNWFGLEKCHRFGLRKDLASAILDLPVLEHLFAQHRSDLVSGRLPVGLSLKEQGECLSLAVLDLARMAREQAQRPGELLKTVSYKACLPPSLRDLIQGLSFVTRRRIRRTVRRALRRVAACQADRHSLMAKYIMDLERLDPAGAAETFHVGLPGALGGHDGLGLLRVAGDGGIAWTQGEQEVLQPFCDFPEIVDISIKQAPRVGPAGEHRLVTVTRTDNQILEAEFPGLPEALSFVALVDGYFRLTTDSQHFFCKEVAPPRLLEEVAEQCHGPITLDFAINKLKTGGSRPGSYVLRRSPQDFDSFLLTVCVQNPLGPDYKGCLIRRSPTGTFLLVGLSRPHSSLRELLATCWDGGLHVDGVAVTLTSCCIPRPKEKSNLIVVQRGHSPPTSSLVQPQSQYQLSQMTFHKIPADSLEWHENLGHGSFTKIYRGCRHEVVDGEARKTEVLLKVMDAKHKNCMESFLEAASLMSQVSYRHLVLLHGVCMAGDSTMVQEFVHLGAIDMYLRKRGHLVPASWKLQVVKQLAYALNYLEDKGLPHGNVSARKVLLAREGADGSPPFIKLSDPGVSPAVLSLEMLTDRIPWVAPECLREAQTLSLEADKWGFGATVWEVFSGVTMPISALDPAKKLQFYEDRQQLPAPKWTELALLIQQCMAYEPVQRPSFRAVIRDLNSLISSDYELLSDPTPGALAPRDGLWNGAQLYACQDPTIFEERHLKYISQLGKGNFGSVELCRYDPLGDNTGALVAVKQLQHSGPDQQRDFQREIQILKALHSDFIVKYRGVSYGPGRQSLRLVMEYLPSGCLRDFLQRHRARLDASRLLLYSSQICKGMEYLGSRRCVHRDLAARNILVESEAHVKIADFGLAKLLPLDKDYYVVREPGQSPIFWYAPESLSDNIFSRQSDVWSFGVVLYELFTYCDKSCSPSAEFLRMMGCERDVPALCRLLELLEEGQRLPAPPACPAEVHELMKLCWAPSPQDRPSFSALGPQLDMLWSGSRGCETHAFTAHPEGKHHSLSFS
# Protein-tyrosine kinase 6 (Homo sapiens), sequence (Q13882 whole entry, looked up): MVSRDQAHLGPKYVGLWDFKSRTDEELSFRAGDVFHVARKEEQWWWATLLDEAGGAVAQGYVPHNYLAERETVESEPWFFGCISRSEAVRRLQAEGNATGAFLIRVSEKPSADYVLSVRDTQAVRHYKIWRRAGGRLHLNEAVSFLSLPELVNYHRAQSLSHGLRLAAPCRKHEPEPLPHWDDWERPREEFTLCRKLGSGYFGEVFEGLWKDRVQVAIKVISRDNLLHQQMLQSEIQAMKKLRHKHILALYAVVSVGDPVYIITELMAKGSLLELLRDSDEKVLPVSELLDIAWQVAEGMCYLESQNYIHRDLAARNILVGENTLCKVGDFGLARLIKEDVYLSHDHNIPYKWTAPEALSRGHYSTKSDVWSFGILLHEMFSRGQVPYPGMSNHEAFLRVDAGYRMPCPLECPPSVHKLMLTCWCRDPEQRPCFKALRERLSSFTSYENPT
compound,measurement,setting,value
CC(C)S(=O)(=O)c1ccc2nccc(Nc3ccc4scnc4c3)c2c1,% of inhibition,[1],12%
same,% of inhibition,[2],13%
same,% of inhibition,[3],18%
same,% of inhibition,[4],17%
CN([C@@H]1CCc2c(CC(=O)O)c3cc(S(C)(=O)=O)ccc3n2C1)S(=O)(=O)c1ccc(F)cc1,% of control,[5],36%
same,inhibition,[6],41%
same,inhibition,[7],45%
same,% of control,[8],6%
C[C@@H](Oc1cc(-n2cnc3ccc(CN4CCN(C)CC4)cc32)sc1C(N)=O)c1ccccc1C(F)(F)F,% of inhibition,[9],90%
same,% of inhibition,[10],96%
same,% of inhibition,[11],92%
same,% of inhibition,[12],92%
same,% of inhibition,[13],92%
c1ccc([C@@H]2C[C@H]2NC2CCNCC2)cc1,% of inhibition,[14],49%
same,% of inhibition,[15],39%
same,% of inhibition,[16],74%
O=C(NC[C@H](O)CN1CCc2ccccc2C1)c1ccnc(NC2CCC2)c1,% of inhibition,[17],75%
OCCn1cc(-c2ccc3c(c2)CCC3=NO)c(-c2ccncc2)n1,% of control,[18],8%
O=C(Nc1cccnc1)c1cc(-c2ccnc(F)c2)ccc1OCc1ccccc1,% of control,[19],< 50%
same,% of control,[20],< 50%
same,% of control,[21],< 50%
CC(=O)N1CCC(c2ccc(C(=O)NC(=N)N)cc2C(F)(F)F)CC1,% of inhibition,[22],67%
same,% of control,[23],0%
same,% of control,[24],34%
CN(C)C(=O)/C(C#N)=C/c1ccc(-c2nc3cnc4[nH]ccc4c3n2C2CCCCC2)o1,% of inhibition,[25],97%
